The record followed here is a melting point compilation (Tetko et al.).

Compound `CC1(c2ccc(N)cc2)NC(=O)NC1=O` (configuration not stated) came in with a melting point of 187 to 189 °C.

`Nc1onc(-c2ccccc2)c1-c1ccccc1` yielded a melting point of 144 to 146 °C.

Regarding `COC(=O)c1c[nH]c(CC(C)C)n1`, the melting point fell in the range of 136 to 138 °C.

As to `O=C(O)CNS(=O)(=O)c1cccc2c1N=S=N2`, the melting point was in the range of 270 to 272 °C.

On to `O=C(O)CNS(=O)(=O)c1ccc2c(c1)COC2`, for which the melting point lay within 219 to 221 °C.

`COc1ccccc1C(=O)NC(=O)CCl` displayed a melting point of 118 to 120 °C.

With `Nn1c(S)nnc1-c1ccccc1F`, the melting point lay in the range of 184 to 186 °C.

The compound `NC(=O)Cn1c(S)nnc1-c1cccs1` displayed a melting point of 319 to 321 °C.

In turn, `Cn1nc(C=O)cc1-c1cccs1` came in with a melting point of 76 to 78 °C.

Consider `Cc1ccc(-n2c(C)cc(C=O)c2C)cc1`, for which the melting point was 102 to 104 °C.

The compound `CN(CCO)CC(=O)O` displayed a melting point of 136 to 138 °C.

`COc1ccc(S(N)(=O)=O)c(C)c1C` gave a melting point of 202 to 204 °C.

In turn, `O=[N+]([O-])c1ccc(-c2nnc(O)o2)cc1` showed a melting point of 249 to 251 °C.

Consider `O=C(CCl)Nc1ccnn1Cc1ccccc1`, for which the melting point fell in the range of 99 to 101 °C.

The compound `O=S(=O)(c1ccc(F)cc1F)N1CCNCC1` gave a melting point of 93 to 95 °C.

`NS(=O)(=O)CC1CCCC1` showed a melting point of 42 to 44 °C.

`CCc1cc(Cl)nc(-c2ccc([N+](=O)[O-])cc2)n1` showed a melting point of 103 to 105 °C.

Consider `O=C(O)c1ccon1`, for which the melting point was in the range of 143 to 145 °C.

In turn, `CC(C)Cc1ccc(C2(C)NC(=O)NC2=O)cc1` (configuration not stated) registered a melting point of 178 to 180 °C.

The compound `CC1CCC(C(=O)O)C2C(=O)N(c3ccccc3)C(=O)C12` (configuration not stated) gave a melting point of 182 to 184 °C.

Compound `Cc1ccc(N2CCCC2)c(C(=O)O)c1` yielded a melting point of 124 to 126 °C.

For the compound `N#Cc1ccc(CN2CCNCC2)cc1`, the melting point was in the range of 214 to 216 °C.

`COC(=O)Nc1ccc(N)cc1F` displayed a melting point of 72 to 74 °C.

On to `Nc1ccc(C(=O)N2CCCCC2)nc1`, for which the melting point was 170 to 172 °C.

`O=C(CCl)Nc1cccc(C(=O)Nc2cccc(C(F)(F)F)c2)c1`: the melting point lay in the range of 197 to 199 °C.

As for `COc1cc(C(N)=NO)ccc1O`, the melting point lay in the range of 147 to 149 °C.

With `COC(=O)c1sc(C)c(Br)c1O`, the melting point fell in the range of 95 to 97 °C.

In turn, `O=C(O)c1cc(F)cc([N+](=O)[O-])c1Br` displayed a melting point of 177 to 179 °C.

`Cc1ccc2c(c1)C(=NO)C(=O)N2` came in with a melting point of 239 to 241 °C.

`O=C(O)c1cc2c(s1)CCCCC2` returned a melting point of 162 to 166 °C.

`CC(C)(C)c1ccccc1S(=O)(=O)Cl`: the melting point is 59 to 61 °C.

Regarding `COC(=O)C1C2CCC(N2)C1C(=O)OC` (configuration not stated), the melting point lay within 77 to 79 °C.

`O=c1sc2ccccc2nc1NO` displayed a melting point of 244 to 246 °C.

For `CC(=O)Nc1ccc(OC2CCCCC2O)cc1` (configuration not stated), the melting point lay in the range of 139 to 141 °C.

The compound `COC(=O)Nc1ccc(N)cc1` returned a melting point of 89 to 91 °C.

Consider `CC(C)CCC(=O)NCCCS(N)(=O)=O`, for which the melting point lay within 90 to 92 °C.

Turning to `O=C(O)c1cnc(C2CCCO2)s1` (configuration not stated), the melting point was in the range of 139 to 141 °C.

In the case of `CC(C)N1C(=O)CNC1=O`, the melting point was 83 to 85 °C.

Turning to `N#Cc1cnc2ccccc2c1OCCO`, the melting point was in the range of 172 to 174 °C.

`COc1ccc2[nH]c(C(=O)O)cc2c1OC(F)F` yielded a melting point of 231 to 233 °C.

In turn, `CCN(c1ccccc1)S(=O)(=O)c1cccc(C(=O)O)c1` yielded a melting point of 175 to 177 °C.

In the case of `OC[C@@H](O)CNCCC(F)(F)F`, the melting point was in the range of 34 to 36 °C.

As to `CC(C)(C)OC(=O)Nc1ccc(C(F)(F)F)cc1C(=O)O`, the melting point fell in the range of 190 to 192 °C.

`CC(C)C1(C)CC(=O)NC1=O` (configuration not stated) came in with a melting point of 78 to 80 °C.

In the case of `Cc1ccc(-c2noc(CCC(=O)O)n2)cc1F`, the melting point was 142 to 144 °C.

`COc1ccc(S(=O)(=O)N2CCCCCC2)cc1C(=O)O` came in with a melting point of 114 to 116 °C.

Regarding `C=CC(=O)Nc1ccc(OCC)c(OC)c1`, the melting point was in the range of 117 to 119 °C.

`CC(Cl)C(=O)c1c[nH]c2ncccc12` (configuration not stated): the melting point is 162 to 164 °C.

`N#Cc1cc(N)ccc1Oc1ccc(C(F)(F)F)cc1` displayed a melting point of 75 to 77 °C.

For `FC(F)(F)c1ccccc1-c1nnc(CCl)o1`, the melting point lay within 35 to 37 °C.

Regarding `CCCN1C(=O)NC(C)(C)C1=O`, the melting point lay within 109 to 111 °C.

`CC(C)Cn1cnnc1C1CCCN1` (configuration not stated) showed a melting point of 54 to 56 °C.

As for `Cc1cc(C)c2c(C)nn(-c3ccc(N)cc3)c2n1`, the melting point was 104 to 106 °C.

`NCC(O)c1ccccc1F` (configuration not stated): the melting point lay within 62 to 64 °C.

In turn, `O=C(O)c1cccc(S(=O)(=O)CC(F)(F)F)c1` displayed a melting point of 192 to 194 °C.

Consider `O=C1NC(=O)C(=Cc2ccccc2C(F)(F)F)S1`, for which the melting point lay within 170 to 172 °C.

Consider `Cc1csc(=O)[nH]1`, for which the melting point is 98 to 100 °C.

For the compound `CCc1nc(C=O)c2ccccn12`, the melting point fell in the range of 103 to 105 °C.

As to `COc1ccccc1-c1nnc(N)o1`, the melting point is 175 to 177 °C.

Compound `O=[N+]([O-])c1c(F)ccc2ncccc12` registered a melting point of 84 to 86 °C.

`Cn1c(C(=O)O)cc2cc(C(F)(F)F)ccc21` returned a melting point of 199 to 201 °C.

In turn, `Cc1sc(N)nc1C(C)C` had a melting point of 107 to 109 °C.

For `O=C1CCc2cc(S(=O)(=O)Cl)c(F)cc2N1`, the melting point is 207 to 209 °C.

In the case of `O=C(OCc1ccccc1)N1CCCC1CS(=O)(=O)Cl` (configuration not stated), the melting point fell in the range of 60 to 62 °C.

`CC(=O)N1CCN(CC(N)=S)CC1` had a melting point of 199 to 201 °C.

For the compound `CC(Cc1cccc(F)c1)(C(=O)O)C(=O)O`, the melting point was in the range of 150 to 152 °C.

With `O=[N+]([O-])c1cnc2c(c1)CCC2`, the melting point was 85 to 87 °C.

The compound `Cc1ccc(NC(=O)Nc2ccccc2)cc1N` yielded a melting point of 201 to 203 °C.

Compound `Cc1ccc2[nH]c(C(=O)O)cc2c1C` showed a melting point of 243 to 245 °C.

As to `O=[N+]([O-])c1cnc2c(c1)CCCC2`, the melting point was in the range of 71 to 73 °C.

In turn, `Cc1nc[nH]n1` came in with a melting point of 89 to 91 °C.

On to `Nc1cccc2c1C(=O)NC2=O`, for which the melting point was in the range of 268 to 270 °C.

`O=Cc1cc(Cl)c2c(c1)OCCO2` came in with a melting point of 79 to 83 °C.

`Nc1ccnn1-c1ccc([N+](=O)[O-])cc1` came in with a melting point of 138 to 140 °C.

For the compound `O=S(=O)(Nc1nc2ccccc2nc1Cl)c1ccccc1C(F)(F)F`, the melting point is 157 to 159 °C.

For the compound `CSc1nc2ncnc(Cl)c2s1`, the melting point fell in the range of 149 to 151 °C.

On to `Cc1ccc(S(=O)(=O)N2CCC(=O)CC2)cc1`, for which the melting point lay within 125 to 127 °C.

`CC(C)c1sc(N)nc1-c1ccccc1` came in with a melting point of 231 to 233 °C.

`CNC(=O)c1cccc(NC(=O)C(C)Cl)c1` (configuration not stated) returned a melting point of 149 to 151 °C.

Compound `Cc1cc(C)c(C=O)cc1C` came in with a melting point of 41 to 46 °C.

Consider `O=C(O)c1ccc2c(c1)C(=O)N(c1ccc(F)cc1)C2=O`, for which the melting point fell in the range of 295 to 297 °C.

Compound `CC(CO)N1Cc2cccc(N)c2C1` (configuration not stated) yielded a melting point of 129 to 131 °C.

`CC(=O)c1oc2ccccc2c1N` yielded a melting point of 154 to 156 °C.

On to `NNC(=O)c1cc(N)cc([N+](=O)[O-])c1`, for which the melting point lay within 227 to 229 °C.

In the case of `O=S(=O)(O)C1CCCNC1` (configuration not stated), the melting point lay within 304 to 306 °C.

Consider `FC(F)(F)Oc1cccc2c(Cl)ccnc12`, for which the melting point fell in the range of 51 to 53 °C.

`BrCc1ccc2c(c1)COC2` gave a melting point of 49 to 51 °C.

For orientation: melting point means the temperature of the solid-liquid transition.
